The values below come from patent publication US10118895B2, “ROR gamma (RORγ) modulators” (LEAD PHARMA HOLDING B.V., priority 2015, dated 2018).

The target of the assay is T1, RORγ (Homo sapiens, UniProt P51449).
T1 construct: expressed in transfected cells; host or cells: 293FT cells (Invitrogen), expression vector pFN26A (Promega)
T1 sequence (P51449 269-508 limits assumed): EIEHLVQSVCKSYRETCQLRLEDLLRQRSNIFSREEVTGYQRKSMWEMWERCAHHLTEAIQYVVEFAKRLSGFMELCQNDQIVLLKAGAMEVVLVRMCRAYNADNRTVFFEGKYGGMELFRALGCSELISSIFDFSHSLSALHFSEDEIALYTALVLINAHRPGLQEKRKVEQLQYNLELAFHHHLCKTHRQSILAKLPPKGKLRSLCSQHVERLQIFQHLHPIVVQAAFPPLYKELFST
The experiment in a line: RORγ GAL4 reporter gene assay (luciferase readout, 293FT cells). Format: cell-based. The conditions noted are these: inhibition of RORγ (GAL4-RORγ-LBD) in transfected 293FT cells, luciferase signal, overnight incubation; read-out: mean pIC50 (converted). On the procedure:
RORγ GAL4 Reporter Gene Assay
Example inhibitors 1-38 were tested for their ability to inhibit RORγ activity in a RORγ GAL4 reporter gene assay. The assay procedure and results are described below.
RORγ GAL4 Reporter Gene Assay Description
A GAL4 one-hybrid reporter system employing luciferase readout was established to determine inhibition of RORγ in 293FT cells. The RORγ ligand-binding domain (LBD) was fused to the yeast GAL4 DNA binding domain (DBD) and placed under the control of the human cytomegalovirus (CMV) immediate early promoter, using expression vector pFN26A (Promega) and standard recombinant DNA cloning methods. To serve as a control in the assay, a similar vector was generated in which the GAL4-DBD was fused to Herpes simplex virus protein 16 (VP16), a constitutive transcriptional activator.
To monitor the inhibitory effect of compounds on RORγ, a transcriptional reporter construct was used. The pGL4.35 vector (Promega) contains nine copies of the GAL4 Upstream Activator Sequence (UAS). This sequence drives the transcription of the luciferase reporter gene luc2P in response to binding of a fusion protein containing the GAL4 DNA binding domain, as for example expressed by the GAL4-RORγ-LBD and GAL4-VP16 expression vectors described above. To allow a GAL4 fusion protein to drive the expression of the luciferase reporter, the pGL4.35 expression vector and the appropriate GAL4 fusion protein expression vector were bulk transfected in the 293FT cells using standard transfection techniques.
The day after transfection, cells were plated into 96 well plates, test compound was added and the plates were incubated overnight. Subsequently, the firefly luciferase activity was quantified using luciferase detection reagent and luminescence readout.
Detailed Assay Description
293FT cells (Invitrogen) were transfected with a GAL4 fusion protein expression vector (as described above) and the transcriptional reporter construct (pGL4.35, Promega). 60 μL of TransIT-293 transfection reagent (Mirus Bio) was added drop wise to 1500 μl Opti-MEM I Reduced Serum Medium (Invitrogen) and incubated at RT (RT) for 5 to 20 minutes. 1500 μL of this reagent mixture was added to 5 μg of GAL4 fusion protein expression vector and 5 μg of the transcriptional reporter construct, and incubated at RT for 20 minutes.
To harvest 293FT cells from a T75 flask, first the culture medium was taken off the cells. Subsequently, the cells were washed with Phosphate Buffered Saline (PBS) (Lonza), after which the PBS was removed. To dissociate the cells, 1 ml of TrypLE Express (Invitrogen) was added to the flask, followed by incubation at RT until the cells visually started to detach. Cells were collected in 5 mL of assay medium (DMEM culture medium (Lonza), 10% dialyzed FBS (Invitrogen) and Pen/Strep (Lonza)) to achieve a single cell suspension. 10×10^6 cells were spun down and re-suspended in 10 mL of assay medium. Subsequently, the cell suspension was added to the transfection mix tube, and then transferred as a whole to a T75 flask (Greiner), followed by overnight (16-24 hours) incubation at 37° C. and 5% CO2.
For compound screening, the cells were harvested (as described above) and counted. 13×10^6 cells were spun down, the supernatant was aspirated and the cells were re-suspended in 17.3 mL of assay medium obtaining a cell suspension of 0.75×10^6 cells/mL. 80 μL of cell suspension (60,000 cells) was plated per well into a white, flat bottom, tissue culture treated, 96 well screening plates (Greiner).
Test compounds were diluted, starting from a 10 mM dimethylsulfoxide (DMSO) stock solution, to serial dilutions in DMSO at 500× the final test concentration. Subsequently, these solutions were diluted to 5× the final test concentration in two 10-fold-dilution steps in assay medium. The final DMSO concentration of the 5× test compound solution was 1%. […]
With `Cc1nc(S(=O)(=O)CC2CC2)ccc1CC(=O)Nc1ccc(C(O)(C(F)(F)F)C(F)(F)F)cc1` [Example 24, 2-[6-(cyclopropylmethylsulfonyl)-2-methyl-3-pyridyl]-N-[4-[2,2,2-trifluoro-1-hydroxy-1-(trifluoromethyl)ethyl]phenyl]acetamide], the IC50 was not above 1 µM.

On to `O=C(Cc1ccc(S(=O)(=O)CC2CC2)nc1)Nc1ccc(C(OCC2COC2)(C(F)(F)F)C(F)(F)F)cc1` [Example 26, 2-[6-(cyclopropylmethylsulfonyl)-3-pyridyl]-N-[4-[2,2,2-trifluoro-1-(oxetan-3-ylmethoxy)-1-(trifluoromethyl)ethyl]phenyl]acetamide], for which the IC50 is not above 1 µM.

`COCCOC(c1ccc(NC(=O)Cc2ccc(S(=O)(=O)CC3CC3)nc2)cc1)(C(F)(F)F)C(F)(F)F` [Example 27, 2-[6-(cyclopropylmethylsulfonyl)-3-pyridyl]-N-[4-[2,2,2-trifluoro-1-(2-methoxyethoxy)-1-(trifluoromethyl)ethyl]phenyl]acetamide]: the IC50 was not above 0.1 µM.

Turning to `O=C(Cc1ccc(S(=O)(=O)CC2CC2)nc1)Nc1ccc(C(OCCO)(C(F)(F)F)C(F)(F)F)cc1` [Example 28, 2-[6-(cyclopropylmethylsulfonyl)-3-pyridyl]-N-[4-[2,2,2-trifluoro-1-(2-hydroxyethoxy)-1-(trifluoromethyl)ethyl]phenyl]acetamide], the IC50 is not above 1 µM.

With `O=C(Cc1ccc(S(=O)(=O)CC2CC2)cn1)Nc1ccc(C(O)(C(F)(F)F)C(F)(F)F)cc1` [Example 29, 2-[5-(cyclopropylmethylsulfonyl)-2-pyridyl]-N-[4-[2,2,2-trifluoro-1-hydroxy-1-(trifluoromethyl)ethyl]phenyl]acetamide], the IC50 is not above 0.1 µM.

On to `CC(C)OC(c1ccc(NC(=O)Cc2ccc(S(=O)(=O)CC3CC3)cn2)cc1)(C(F)(F)F)C(F)(F)F` [Example 30, 2-[5-(cyclopropylmethylsulfonyl)-2-pyridyl]-N-[4-[2,2,2-trifluoro-1-isopropoxy-1-(trifluoromethyl)ethyl]phenyl]acetamide], for which the IC50 was not above 0.1 µM.

Take `O=C(Cc1ccc(S(=O)(=O)CC2CC2)cn1)Nc1ccc(C(O)(C2CC2)C2CC2)cc1` [Example 33, 2-[5-(cyclopropylmethylsulfonyl)-2-pyridyl]-N-[4-[dicyclopropyl(hydroxy)methyl]phenyl]acetamide]: the IC50 was not above 1 µM.

As for `COC(c1ccc(NC(=O)Cc2ccc(S(=O)(=O)CC3CC3)cn2)cc1)(C(F)(F)F)C(F)(F)F` [Example 34, 2-[5-(cyclopropylmethylsulfonyl)-2-pyridyl]-N-[4-[2,2,2-trifluoro-1-methoxy-1-(trifluoromethyl)ethyl]phenyl]acetamide], the IC50 is not above 0.1 µM.

Regarding `O=C(Cc1ncc(S(=O)(=O)CC2CC2)cn1)Nc1ccc(C(O)(C(F)(F)F)C(F)(F)F)cc1` [Example 35, 2-[5-(cyclopropylmethylsulfonyl)pyrimidin-2-yl]-N-[4-[2,2,2-trifluoro-1-hydroxy-1-(trifluoromethyl)ethyl]phenyl]acetamide], the IC50 is not above 1 µM.

As to `O=C(Cc1ccc(S(=O)(=O)CC2CC2)nn1)Nc1ccc(C(O)(C(F)(F)F)C(F)(F)F)cc1` [Example 37, 2-[6-(cyclopropylmethylsulfonyl)pyridazin-3-yl]-N-[4-[2,2,2-trifluoro-1-hydroxy-1-(trifluoromethyl)ethyl]phenyl]acetamide], the IC50 was not above 1 µM.

Take `O=C(Cc1cnc(S(=O)(=O)CC2CC2)nc1)Nc1ccc(C(O)(C(F)(F)F)C(F)(F)F)cc1` [Example 38, 2-[2-(cyclopropylmethylsulfonyl)pyrimidin-5-yl]-N-[4-[2,2,2-trifluoro-1-hydroxy-1-(trifluoromethyl)ethyl]phenyl]acetamide]: the IC50 is not above 1 µM.
